Data reported in ChEMBL document CHEMBL6153052, “Development of molecular Trojan horses targeting New Delhi metallo-β-lactamase-1 for the restoration of meropenem susceptibility in drug-resistant bacteria” (Eur J Med Chem, 2025).
Values after ≈ are worked out from the molar mass of the structure shown. Active and inactive are the calls of the source. The calls are words filed in the database; no cut-off is given here.

Tests used:
[1] = target: T1, Metallo-beta-lactamase type 2 (Bacteria, UniProt C7C422); assay: Inhibition of NDM-1 (unknown origin) using nitrocefin as substrate assessed as residual activity preincubated for 15 mins followed by substrate addition by absorbance based assay
[2] = target: Metallo-beta-lactamase type 2 (Bacteria) (UniProt C7C422); assay: Inhibition of NDM-1 (unknown origin) using nitrocefin as substrate assessed as residual activity at 64 ug/ml preincubated for 15 mins followed by substrate addition by absorbance based assay relative to control; settings: dose 64.0 µg/ml
[3] = target: T1, Metallo-beta-lactamase type 2; assay: Inhibition of NDM-1 (unknown origin)
Escherichia coli [4] = assay: Antibacterial activity against Escherichia coli ZJ487 infected in BALB/c mouse assessed as reduction in bacterial count in spleen at 10 mg/kg, sc administered at every 12 hr interval measured after 42 hrs; type: functional, organism-based
Escherichia coli [5] = assay: Antibacterial activity against Escherichia coli ZJ487 infected in BALB/c mouse assessed as reduction in bacterial count in liver at 10 mg/kg, sc administered at every 12 hr interval measured after 42 hrs; type: functional, organism-based
Acinetobacter baumannii [6] = assay: Antibacterial activity against Acinetobacter baumannii aba assessed as minimum bacteriostatic concentration incubated for 20 hrs; type: functional
Klebsiella pneumoniae [7] = assay: Antibacterial activity against Klebsiella pneumoniae K-N-1 assessed as minimum bacteriostatic concentration incubated for 20 hrs; type: functional
[8] = target: T1, Metallo-beta-lactamase type 2; assay: Inhibition of C-terminal His-tagged NDM-1 (unknown origin) extracted from Escherichia coli BL21 (DE3) using fluorescent cephalosporin as substrate preincubated for 10 mins followed by substrate addition by fluorescence based assay
Escherichia coli [9] = assay: Antibacterial activity against Escherichia coli ZJ487 assessed as minimum bacteriostatic concentration incubated for 20 hrs; type: functional
Klebsiella pneumoniae [10] = assay: Synergistic antibacterial activity against Klebsiella pneumoniae K-N-1 assessed as minimum bacteriostatic concentration of meropenem at 8 ug/ml incubated for 20 hrs; type: functional; settings: dose 8 µg/ml
[11] = Metabolic stability in rat liver homogenate assessed as parent compound remaining measured after 48 hrs by HPLC analysis; type: ADME, tissue-based; settings: read-out: Stability
Escherichia coli [12] = assay: Synergistic antibacterial activity against Escherichia coli ZJ487 infected in BALB/c mouse assessed as reduction in bacterial count in liver at 10 mg/kg, sc administered at every 12 hr interval measured after 42 hrs in presence of meropenem; type: functional, organism-based
Klebsiella pneumoniae [13] = assay: Synergistic antibacterial activity against Klebsiella pneumoniae K-N-1 assessed as fractional inhibitory concentration index at 8 ug/ml incubated for 20 hrs in presence of meropenem; type: functional; settings: dose 8 µg/ml
Escherichia coli [14] = assay: Synergistic antibacterial activity against Escherichia coli BL21 assessed as fractional inhibitory concentration index at 8 ug/ml incubated for 20 hrs in presence of meropenem; type: functional; settings: dose 8 µg/ml
[15] = Cytotoxicity against HEK293T cells assessed as survival rate at 128 ug/ml incubated for 48 hrs by MTT assay; type: toxicity, cell-based, HEK-293T; settings: human, at 128 µg/mL, read-out: Survival
THP-1 = assay: Cytotoxicity against human THP-1 cells assessed as survival rate at 128 ug/ml incubated for 48 hrs by MTT assay; type: functional; settings: read-out: Survival
Escherichia coli [16] = assay: Synergistic antibacterial activity against Escherichia coli ZJ487 assessed as fractional inhibitory concentration index upto 64 ug/ml incubated for 24 hrs in presence of meropenem by microdilution checkerboard analysis; type: functional; settings: dose <= 64 µg/ml
Escherichia coli [17] = assay: Synergistic bactericidal activity against Escherichia coli ZJ487 at 16 ug/ml incubated for 8 hrs in presence of meropenem; type: functional, organism-based; settings: dose 16.0 µg/ml
Escherichia coli [18] = assay: Synergistic antibacterial activity against Escherichia coli ZJ487 infected in BALB/c mouse assessed as reduction in bacterial count in spleen at 10 mg/kg, sc administered at every 12 hr interval measured after 42 hrs in presence of meropenem; type: functional, organism-based
Acinetobacter baumannii [19] = assay: Synergistic antibacterial against Acinetobacter baumannii aba assessed as minimum bacteriostatic concentration of meropenem at 8 ug/ml incubated for 20 hrs; type: functional; settings: dose 8 µg/ml
Escherichia coli [20] = assay: Synergistic antibacterial activity against Escherichia coli ZJ487 assessed as fractional inhibitory concentration index at 8 ug/ml incubated for 20 hrs in presence of meropenem; type: functional; settings: dose 8 µg/ml
Acinetobacter baumannii [21] = assay: Synergistic antibacterial against Acinetobacter baumannii aba assessed as fractional inhibitory concentration index at 8 ug/ml incubated for 20 hrs in presence of meropenem; type: functional; settings: dose 8 µg/ml
Escherichia coli [22] = assay: Synergistic antibacterial activity against Escherichia coli ZJ487 assessed as minimum bacteriostatic concentration of meropenem at 8 ug/ml incubated for 20 hrs; type: functional; settings: dose 8 µg/ml
Escherichia coli [23] = assay: Synergistic antibacterial activity against Escherichia coli BL21 expressing NDM-1 assessed as fractional inhibitory concentration index upto 64 ug/ml incubated for 24 hrs in presence of meropenem by microdilution checkerboard analysis; type: functional; settings: dose <= 64 µg/ml
[24] = Metabolic stability in rat plasma assessed as parent compound remaining measured after 48 hrs by HPLC analysis; type: ADME, cell-free; settings: read-out: Stability
Escherichia coli [25] = assay: Antibacterial activity against Escherichia coli BL21 assessed as minimum bacteriostatic concentration incubated for 20 hrs; type: functional
Escherichia coli [26] = assay: Synergistic bactericidal activity against Escherichia coli BL21 expressing NDM-1 at 16 ug/ml incubated for 8 hrs in presence of meropenem; type: functional, organism-based; settings: dose 16.0 µg/ml
Escherichia coli [27] = assay: Synergistic antibacterial activity against Escherichia coli BL21 assessed as minimum bacteriostatic concentration of meropenem at 8 ug/ml incubated for 20 hrs; type: functional; settings: dose 8 µg/ml

T1 sequence (C7C422 whole entry): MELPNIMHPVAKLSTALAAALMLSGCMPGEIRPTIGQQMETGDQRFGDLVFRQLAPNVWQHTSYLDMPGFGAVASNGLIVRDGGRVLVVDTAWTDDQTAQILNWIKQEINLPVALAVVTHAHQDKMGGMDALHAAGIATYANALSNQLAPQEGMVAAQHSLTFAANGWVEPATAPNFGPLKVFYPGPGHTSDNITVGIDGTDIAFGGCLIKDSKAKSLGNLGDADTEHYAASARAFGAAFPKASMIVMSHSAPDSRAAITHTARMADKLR
Chain of Metallo-beta-lactamase type 2 (Bacteria) (C7C422 whole entry): as above

O=C(O)C1=C(C[Se]c2ccccc2C(=O)Nc2ccccc2)CS[C@@H]2[C@H](NS(=O)(=O)C3CC3)C(=O)N12
IC50 [1]: 114 µM
Activity [2]: 44.1%

O=C(O)C1=C(C[Se]c2ccccc2C(=O)Nc2ccccc2)CS[C@@H]2[C@H](NCc3cc(Cl)nc(Cl)c3)C(=O)N12
Activity [2]: 68.1%

O=C(O)C1=C(C[Se]c2ccccc2C(=O)Nc2ccccc2)CS[C@@H]2[C@H](NC(=O)c3cccs3)C(=O)N12
Activity [2]: 49.5%

O=c1c2ccccc2[se]n1-c1ncccc1-c1ccc(F)cc1
IC50 [3]: 11.3 µM

Cc1cc(Cl)cc(CN[C@@H]2C(=O)N3C(C(=O)O)=C(C[Se]c4ccccc4C(=O)Nc4ccccc4)CS[C@H]23)c1
IC50 [1]: 72.9 µM
Activity [2]: 30%

O=C(O)C1=C(C[Se]c2ccccc2C(=O)Nc2ccccc2)CS[C@@H]2[C@H](NCc3cccc(Cl)c3)C(=O)N12
Activity [2]: 60.9%

O=C(O)C1=C(C[Se]c2ccccc2C(=O)Nc2ccccc2)CS[C@@H]2[C@H](NC(=O)c3ccccc3)C(=O)N12
IC50 [1]: 62.2 µM
Activity [2]: 22.3%

O=C(O)C1=C(C[Se]c2ccccc2C(=O)Nc2ccccc2)CS[C@@H]2[C@H](NCc3cc(F)cc(Cl)c3)C(=O)N12
IC50 [1]: 77.8 µM
Activity [2]: 27.8%

COc1cc(Cl)cc(CN[C@@H]2C(=O)N3C(C(=O)O)=C(C[Se]c4ccccc4C(=O)Nc4ccccc4)CS[C@H]23)c1
Activity [2]: 37.9%

CCOC(=O)[C@]1(CS)C[C@H](C(=O)O)C(C)(C)S1
IC50 [3]: 0.04 µM

N#CCC(=O)N[C@@H]1C(=O)N2C(C(=O)O)=C(C[Se]c3ccccc3C(=O)Nc3ccccc3)CS[C@H]12
Activity [2]: 61.7%

O=c1c2ccccc2[se]n1-c1ccccc1 [EBSELEN]
IC50 [1]: 16 µM
Activity [2]: 8.05%

O=C(O)C1=C(C[Se]c2ccccc2C(=O)Nc2ccccc2)CS[C@@H]2[C@H](NS(=O)(=O)Cc3ccccc3)C(=O)N12
Activity [2]: 63.8%

Cc1cc(C)cc(CN[C@@H]2C(=O)N3C(C(=O)O)=C(C[Se]c4ccccc4C(=O)Nc4ccccc4)CS[C@H]23)c1
Activity [2]: 69.3%

O=C(O)C1=C(C[Se]c2ccccc2C(=O)Nc2ccccc2)CS[C@@H]2[C@H](NCc3ccccc3Cl)C(=O)N12
Activity [2]: 66.2%

O=C(O)C1=C(C[Se]c2ccccc2C(=O)Nc2ccccc2)CS[C@@H]2[C@H](NC(=O)n3cnnn3)C(=O)N12
Activity [2]: 72.9%

O=C(O)C1=C(C[Se]c2ccccc2C(=O)Nc2ccccc2)CS[C@@H]2[C@H](NC(=O)C3CC3)C(=O)N12
IC50 [1]: 150 µM
Activity [2]: 47.3%

C[C@@H](O)[C@H]1C(=O)N2C(C(=O)O)=C(S[C@@H]3CN[C@H](C(=O)N(C)C)C3)[C@H](C)[C@H]12 [MEROPENEM]
Activity (Escherichia coli [4]): inactive
Activity (Escherichia coli [5]): inactive
MIC (Acinetobacter baumannii [6]): > 512 µg/mL
MIC (Klebsiella pneumoniae [7]): > 512 µg/mL

O=C(Cc1ccccc1)N[C@H]1C(=O)N2C(C(=O)O)=C(C[S+]([O-])CCC(=O)Oc3c(F)c(F)c(F)c(F)c3F)C[S+]([O-])[C@@H]12 (stereo not given in full)
IC50 [3]: 0.39 µM

O=C(O)C1=C(C[Se]c2ccccc2C(=O)Nc2ccccc2)CS[C@@H]2[C@H](NCc3cc(C(F)(F)F)cc(C(F)(F)F)c3)C(=O)N12
Activity [2]: 61.6%

O=C(O)C1=C(C[Se]c2ccccc2C(=O)Nc2ccccc2)CS[C@@H]2[C@H](NCc3ccccc3)C(=O)N12
IC50 [1]: 37.8 µM
Activity [2]: 17.8%

CCN(CC)[C@@H]1C(=O)N2C(C(=O)O)=C(C[Se]c3ccccc3C(=O)Nc3ccccc3)CS[C@H]12
Activity [2]: 70.2%

O=C(O)C1=C(C[Se]c2ccccc2C(=O)Nc2ccccc2)CS[C@@H]2[C@H](NCc3cc(F)cc(F)c3)C(=O)N12
Activity [2]: 41.1%

O=C(Cc1ccccc1)N[C@@H]1C(=O)N2C(C(=O)O)=C(C[Se]c3ccccc3C(=O)Nc3ccccc3)CS[C@H]12
IC50 [1]: 90.3 µM
Activity [2]: 23.9%

CC(C)(C)OC(=O)NCCCCCCn1[se]c2ccccc2c1=O
IC50 [3]: 1.26 µM

O=C(O)C1=C(C[Se]c2ccccc2C(=O)Nc2ccccc2)CS[C@@H]2[C@H](NCC3CC3)C(=O)N12
Activity [2]: 78.2%

O=C(Cc1ccccc1)N[C@@H]1C(=O)N2C(C(=O)O)=C(CSc3cccc4cccnc34)CS[C@H]12
IC50 [8]: 2.31 µM

O=C(O)C1=C(C[Se]c2ccccc2C(=O)Nc2ccccc2)CS[C@@H]2[C@H](NCc3cccs3)C(=O)N12
IC50 [1]: 52.9 µM
Activity [2]: 25.2%

COc1cc(CN[C@@H]2C(=O)N3C(C(=O)O)=C(C[Se]c4ccccc4C(=O)Nc4ccccc4)CS[C@H]23)cc(OC)c1
Activity [2]: 55.8%

O=C(O)C1=C(C[Se]c2ccccc2C(=O)Nc2ccccc2)CS[C@@H]2[C@H](NS(=O)(=O)c3cccs3)C(=O)N12
Activity [2]: 51.6%

O=C(O)C1=C(C[Se]c2ccccc2C(=O)Nc2ccccc2)CS[C@@H]2[C@H](NCc3cc(Cl)cc(Cl)c3)C(=O)N12
MIC (Escherichia coli [9]): 32 µg/mL (≈ 49.4 µM)
MIC (Klebsiella pneumoniae [10]): 16 µg/mL
remaining at 48 h [11]: 59.3%
IC50 [1]: 7.03 µM
Activity (Escherichia coli [4]): inactive
Activity (Escherichia coli [5]): inactive
Activity (Escherichia coli [12]): Active
fractional inhibitory concentration index (FICI) (Klebsiella pneumoniae [13]): 0.281
fractional inhibitory concentration index (FICI) (Escherichia coli [14]): 0.141
viability at 48 h, 128 ug/ml [15]: > 100%
viability at 128 µg/mL (THP-1): > 100%
fractional inhibitory concentration index (FICI) (Escherichia coli [16]): 0.125
MIC (Acinetobacter baumannii [6]): > 512 µg/mL
Activity (Escherichia coli [17]): Not active; Compound Did Not Eradicate Bacteria Completely But Maintained A State Of Significantly Lower Level Compared To Meropenem Alone
Activity [2]: 6.53%
Activity (Escherichia coli [18]): Active
MIC (Acinetobacter baumannii [19]): 32 µg/mL
fractional inhibitory concentration index (FICI) (Escherichia coli [20]): 0.093
fractional inhibitory concentration index (FICI) (Acinetobacter baumannii [21]): 0.078
MIC (Escherichia coli [22]): 1 µg/mL
fractional inhibitory concentration index (FICI) (Escherichia coli [23]): 0.25
remaining at 48 h [24]: > 80%
MIC (Klebsiella pneumoniae [7]): 64 µg/mL (≈ 98.9 µM)
MIC (Escherichia coli [25]): 128 µg/mL (≈ 198 µM)
Activity (Escherichia coli [26]): Not active; Compound Did Not Eradicate Bacteria Completely But Maintained A State Of Significantly Lower Level Compared To Meropenem Alone
MIC (Escherichia coli [27]): 16 µg/mL

N#Cc1cc(Cl)cc(CN[C@@H]2C(=O)N3C(C(=O)O)=C(C[Se]c4ccccc4C(=O)Nc4ccccc4)CS[C@H]23)c1
Activity [2]: 42.3%

CC1=C(C(=O)O)N2C(=O)[C@@H](NCc3cc(Cl)cc(Cl)c3)[C@H]2SC1
Activity [2]: 99.6%

CC(=O)N[C@@H]1C(=O)N2C(C(=O)O)=C(C[Se]c3ccccc3C(=O)Nc3ccccc3)CS[C@H]12
Activity [2]: 88.2%

O=C(O)C1=C(C[Se]c2ccccc2C(=O)Nc2ccccc2)CS[C@@H]2[C@H](NCc3ccc(Cl)cc3)C(=O)N12
Activity [2]: 54%

CS(=O)(=O)N[C@@H]1C(=O)N2C(C(=O)O)=C(C[Se]c3ccccc3C(=O)Nc3ccccc3)CS[C@H]12
IC50 [1]: 69.7 µM
Activity [2]: 48.9%

O=C(O)C1=C(C[Se]c2ccccc2C(=O)Nc2ccccc2)CS[C@@H]2[C@H](NS(=O)(=O)c3ccccc3)C(=O)N12
Activity [2]: 48.4%
